Holding throughout (assay type): cell-based
Common to all, as to settings: n = 2

The target of test [1] is T1, hGluc-R (Homo sapiens, UniProt P47871).
T1 construct: expressed in transfected cells
As to the kind of experiment: cAMP functional assay, cells expressing human glucagon receptor (primary assay). Here is the method:
(§1) The biological activities/receptor potencies of the synthetic GLP-1 peptides described herein are suitably tested for biological activity, e.g., stimulation of one or more cellular receptor responses. Stable cell lines expressing human, mouse, rat, or dog GLP-1 receptor (GLP-1R), glucagon receptor (GCGR) or glucose-dependent insulinotropic peptide (gastric inhibitory polypeptide) receptor (GIPR) are generated in HEK293 cells or CHO cells by standard methods.
(§2) cAMP assays were performed using “assay buffer”: Assay Buffer: 0.1% BSA (Sigma #A3059) in HBSS (Sigma #H8264) with 25 mM HEPES, pH 7.4 and containing 0.5 mM IBMX (Sigma #17018).
(§3) Low protein binding 384-well plates (Greiner #781280) are used to perform eleven 1 in 5 serial dilutions of test samples which are made in assay buffer. All sample dilutions are made in duplicate.
(§4) A frozen cryo-vial of cells expressing the receptor of interest is thawed rapidly in a water-bath, transferred to pre-warmed assay buffer and spun at 240× g for 5 minutes. Cells are re-suspended in assay buffer at a batch-dependent optimized concentration (e.g. hGCGR cells at 2×10^5 cells/ml, hGLP-1R and hGIPR cells at 1×10^5 cells /ml).
(§5) From the dilution plate, a 5 μL replica is stamped onto a black shallow-well u-bottom 384-well plate (Corning #3676). To this, 5 μL cell suspension is added and the plates incubated at room temperature for 30 minutes.
(§6) cAMP levels are measured using a commercially available cAMP dynamic 2 HTRF kit (Cisbio, Cat #62AM4PEJ), following the two step protocol as per manufacturer's recommendations. In brief; anti-cAMP cryptate (donor fluorophore) and cAMP-d2 (acceptor fluorophore) are made up separately by diluting each 1/20 in conjugate & lysis buffer provided in the kit. 5 μL anti-cAMP cryptate is added to all wells of the assay plate, and 5 μL cAMP-d2 is added to all wells except non-specific binding (NSB) wells, to which conjugate and lysis buffer are added. Plates are incubated at room temperature for one hour and then read on an Envision (Perkin Elmer) using excitation wavelength of 320 nm and emission wavelengths of 620 nm & 665 nm. EC50 values of the synthetic peptides determined in cAMP assays are then determined.

The target in test [2] is T2, hGLP-1R (Homo sapiens, UniProt P43220).
T2 construct: expressed in transfected cells
Kind of test: cAMP functional assay, cells expressing human GLP-1 receptor (primary assay). Here is the method:
as §1, §2, §3, §4, §5, §6

For test [3], the target named is T3, hGIP-R (Homo sapiens, UniProt P48546).
T3 construct: expressed in transfected cells
T3 sequence (P48546 22-466): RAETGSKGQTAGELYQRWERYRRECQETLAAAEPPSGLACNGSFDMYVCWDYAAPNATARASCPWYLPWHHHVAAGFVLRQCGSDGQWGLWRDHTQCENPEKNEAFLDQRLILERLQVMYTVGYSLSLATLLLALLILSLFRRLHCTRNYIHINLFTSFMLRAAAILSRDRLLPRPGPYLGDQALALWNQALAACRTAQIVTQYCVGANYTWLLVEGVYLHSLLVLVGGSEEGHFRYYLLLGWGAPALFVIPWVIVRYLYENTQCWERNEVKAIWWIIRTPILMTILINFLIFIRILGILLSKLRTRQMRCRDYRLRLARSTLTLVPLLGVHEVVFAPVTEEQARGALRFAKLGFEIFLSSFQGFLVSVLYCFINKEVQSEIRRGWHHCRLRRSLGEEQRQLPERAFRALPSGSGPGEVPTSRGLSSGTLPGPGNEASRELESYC
Kind of test: cAMP functional assay, cells expressing human GIP receptor (primary assay). Here is the method: as §1, §2, §3, §4, §5, §6

Where a SMILES comes first, the peptide text is derived from it. [ ]: non-standard residue; d: D form. αMeF = C[C@](N)(Cc1ccccc1)C(=O)O; Aib = CC(C)(N)C(=O)O

For 7 compounds, EC50 results are on record in US20160318987A1 (MEDIMMUNE LIMITED, priority 2013, published 2016).

By EC50 is commonly meant the concentration needed to bring the measured effect to its halfway point. Higher therefore signals a need for much substance.

T2 sequence (P43220 24-463): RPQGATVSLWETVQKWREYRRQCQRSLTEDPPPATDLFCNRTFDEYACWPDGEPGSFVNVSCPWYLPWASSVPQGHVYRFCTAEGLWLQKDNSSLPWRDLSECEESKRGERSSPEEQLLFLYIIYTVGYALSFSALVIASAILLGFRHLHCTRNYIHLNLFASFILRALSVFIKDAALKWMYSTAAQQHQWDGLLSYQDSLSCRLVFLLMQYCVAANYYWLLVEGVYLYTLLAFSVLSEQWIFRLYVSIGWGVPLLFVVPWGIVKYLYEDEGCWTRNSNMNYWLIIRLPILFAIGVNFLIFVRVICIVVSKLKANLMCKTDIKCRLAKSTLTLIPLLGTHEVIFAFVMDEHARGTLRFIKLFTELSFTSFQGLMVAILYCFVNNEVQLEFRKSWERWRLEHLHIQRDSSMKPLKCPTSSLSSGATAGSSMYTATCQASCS
T1 sequence (P47871 26-477): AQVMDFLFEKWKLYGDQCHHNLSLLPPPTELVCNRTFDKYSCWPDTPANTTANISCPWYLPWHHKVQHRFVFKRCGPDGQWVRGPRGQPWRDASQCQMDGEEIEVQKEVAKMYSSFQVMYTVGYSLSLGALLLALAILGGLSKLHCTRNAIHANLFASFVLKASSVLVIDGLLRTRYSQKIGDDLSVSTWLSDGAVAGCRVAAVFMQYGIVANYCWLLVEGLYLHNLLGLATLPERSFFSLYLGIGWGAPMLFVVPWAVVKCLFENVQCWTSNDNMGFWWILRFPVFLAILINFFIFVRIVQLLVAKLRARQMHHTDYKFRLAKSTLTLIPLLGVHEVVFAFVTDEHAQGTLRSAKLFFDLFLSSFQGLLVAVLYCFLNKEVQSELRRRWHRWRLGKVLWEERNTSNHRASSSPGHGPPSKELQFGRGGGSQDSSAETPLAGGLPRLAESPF

In the case of `CC[C@H](C)[C@H](NC(=O)[C@H](Cc1ccccc1)NC(=O)[C@H](CCC(=O)O)NC(=O)[C@H](CCCCN)NC(=O)[C@H](C)NC(=O)[C@H](C)NC(=O)[C@H](CCC(N)=O)NC(=O)CNC(=O)[C@H](CCC(=O)O)NC(=O)[C@H](CC(C)C)NC(=O)[C@H](Cc1ccc(O)cc1)NC(=O)[C@H](CO)NC(=O)[C@H](CO)NC(=O)[C@@H](NC(=O)[C@H](CC(=O)O)NC(=O)[C@H](CO)NC(=O)[C@@H](NC(=O)[C@H](Cc1ccccc1)NC(=O)[C@@H](NC(=O)CNC(=O)[C@H](CCC(=O)O)NC(=O)C(C)(C)NC(=O)[C@@H](N)Cc1c[nH]cn1)[C@@H](C)O)[C@@H](C)O)C(C)C)C(=O)N[C@@H](C)C(=O)NC(C)(C)C(=O)N[C@@H](CC(C)C)C(=O)N[C@H](C(=O)N[C@@H](CCCCN)C(=O)NCC(=O)N[C@@H](CCCNC(=N)N)C(N)=O)C(C)C` [SEQ ID NO: 15, H-(Aib)^2-EGT^5 FTSDV^10 SSYLE^15 GQAAK^20 EFIA-(Aib)^25 LVKGR^30], the EC50 turned out to be 177 nM in test [1], 0.0465 nM in test [2] and 177 nM in test [3].
Regarding `CC[C@H](C)[C@H](NC(=O)[C@](C)(Cc1ccccc1)NC(=O)[C@H](CCC(=O)O)NC(=O)[C@H](CCCCN)NC(=O)[C@H](C)NC(=O)[C@H](C)NC(=O)[C@H](CCC(N)=O)NC(=O)CNC(=O)[C@H](CCC(=O)O)NC(=O)[C@H](CC(C)C)NC(=O)[C@](C)(Cc1ccccc1)NC(=O)[C@H](CO)NC(=O)[C@H](CO)NC(=O)[C@@H](NC(=O)[C@H](CC(=O)O)NC(=O)[C@H](CO)NC(=O)[C@@H](NC(=O)[C@](C)(Cc1ccccc1)NC(=O)[C@H](CO)NC(=O)CNC(=O)[C@H](CCC(=O)O)NC(=O)C(C)(C)NC(=O)[C@@H](N)Cc1c[nH]cn1)[C@@H](C)O)C(C)C)C(=O)N[C@@H](C)C(=O)N[C@@](C)(Cc1ccccc1)C(=O)N[C@@H](CC(C)C)C(=O)NC(C)(C)C(=O)N[C@@H](CCCCN)C(=O)NC(C)(C)C(=O)N[C@@H](CCCNC(=N)N)C(N)=O` [SEQ ID NO: 43, H-(Aib)^2-EG-(S)^5-(α-MeF)^6-TSDV^10 SS-(α-MeF)^13-LE^15 GQAAK^20 E-(α-MeF)^22-IA-(α-MeF)^25 L-(Aib)^27-K-(Aib)^29-R^30] (H-H[Aib]EGS[αMeF]TSDVSS[αMeF]LEGQAAKE[αMeF]IA[αMeF]L[Aib]K[Aib]R-NH2), the values for the EC50 in test [2] and in test [3] were 0.0707 nM and 102 nM, respectively.
Consider `CC[C@H](C)[C@H](NC(=O)[C@H](Cc1ccccc1)NC(=O)[C@H](CCC(=O)O)NC(=O)[C@H](CCCCN)NC(=O)[C@H](C)NC(=O)[C@H](C)NC(=O)[C@H](CCC(N)=O)NC(=O)CNC(=O)[C@H](CCC(=O)O)NC(=O)[C@H](CC(C)C)NC(=O)[C@H](Cc1ccccc1)NC(=O)[C@H](CO)NC(=O)[C@H](CO)NC(=O)[C@@H](NC(=O)[C@H](CC(=O)O)NC(=O)[C@H](CO)NC(=O)[C@@H](NC(=O)[C@H](Cc1ccccc1)NC(=O)[C@@H](NC(=O)CNC(=O)[C@H](CCC(=O)O)NC(=O)C(C)(C)NC(=O)[C@@H](N)Cc1c[nH]cn1)[C@@H](C)O)[C@@H](C)O)C(C)C)C(=O)N[C@@H](C)C(=O)N[C@@H](Cc1ccccc1)C(=O)N[C@@H](CC(C)C)C(=O)N[C@H](C(=O)N[C@@H](CCCCN)C(=O)NCC(=O)N[C@@H](CCCNC(=N)N)C(N)=O)C(C)C` [SEQ ID NO: 18, H-(Aib)^2-EGT^5-FTSDV^10 SS-(F)^13-LE^15 GQAAK^20 EFIA-(F)^25 LVKGR^30] (H-H[Aib]EGTFTSDVSSFLEGQAAKEFIAFLVKGR-NH2), for which the concentration for a half-maximal effect (EC50) in test [2] is 0.0163 nM; in test [3] it was 102 nM.
The matching figures for `CC[C@H](C)[C@H](NC(=O)[C@](C)(Cc1ccccc1)NC(=O)[C@H](CCC(=O)O)NC(=O)[C@H](CCCCN)NC(=O)[C@H](C)NC(=O)[C@H](C)NC(=O)[C@H](CCC(N)=O)NC(=O)CNC(=O)[C@H](CCC(=O)O)NC(=O)[C@H](CC(C)C)NC(=O)[C@](C)(Cc1ccccc1)NC(=O)[C@H](CO)NC(=O)[C@H](CO)NC(=O)[C@@H](NC(=O)[C@H](CC(=O)O)NC(=O)[C@H](CO)NC(=O)[C@@H](NC(=O)[C@](C)(Cc1ccccc1)NC(=O)[C@@H](NC(=O)CNC(=O)[C@H](CCC(=O)O)NC(=O)C(C)(C)NC(=O)[C@@H](N)Cc1c[nH]cn1)[C@@H](C)O)[C@@H](C)O)C(C)C)C(=O)N[C@@H](C)C(=O)N[C@@H](Cc1c[nH]c2ccccc12)C(=O)N[C@@H](CC(C)C)C(=O)N[C@H](C(=O)N[C@@H](CCCCN)C(=O)NCC(=O)N[C@@H](CCCNC(=N)N)C(N)=O)C(C)C` [SEQ ID NO: 29, H-(Aib)^2-EGT^5-(α-MeF)^6-TSDV^10 SS-(α-MeF)^13-LE^15 GQAAK^20 E-(α-MeF)^22-IAW^25 LVKGR^30] (H-H[Aib]EGT[αMeF]TSDVSS[αMeF]LEGQAAKE[αMeF]IAWLVKGR-NH2): 0.0126 nM and 102 nM.
The matching figures for `CC[C@H](C)[C@H](NC(=O)[C@](C)(Cc1ccccc1)NC(=O)[C@H](CCC(=O)O)NC(=O)[C@H](CCCCN)NC(=O)[C@H](C)NC(=O)[C@H](C)NC(=O)[C@H](CCC(N)=O)NC(=O)CNC(=O)[C@H](CCC(=O)O)NC(=O)[C@H](CC(C)C)NC(=O)[C@](C)(Cc1ccccc1)NC(=O)[C@H](CO)NC(=O)[C@H](CO)NC(=O)[C@@H](NC(=O)[C@H](CC(=O)O)NC(=O)[C@H](CO)NC(=O)[C@@H](NC(=O)[C@H](Cc1ccccc1)NC(=O)[C@@H](NC(=O)CNC(=O)[C@H](CCC(=O)O)NC(=O)C(C)(C)NC(=O)[C@@H](N)Cc1c[nH]cn1)[C@@H](C)O)[C@@H](C)O)C(C)C)C(=O)N[C@@H](C)C(=O)N[C@@](C)(Cc1ccccc1)C(=O)N[C@@H](CC(C)C)C(=O)N[C@H](C(=O)N[C@@H](CCCCN)C(=O)NCC(=O)N[C@@H](CCCNC(=N)N)C(N)=O)C(C)C` [SEQ ID NO: 32, H-(Aib)^2-EGT^5-FTSDV^10 SS-(α-MeF)^13-LE^15 GQAAK^20 E-(α-MeF)^22-IA-(α-MeF)^25 LVKGR^30] (H-H[Aib]EGTFTSDVSS[αMeF]LEGQAAKE[αMeF]IA[αMeF]LVKGR-NH2): 0.102 nM and 102 nM.
The matching figures for `CC[C@H](C)[C@H](NC(=O)[C@](C)(Cc1ccccc1)NC(=O)[C@H](CCC(=O)O)NC(=O)[C@H](CCCCN)NC(=O)[C@H](C)NC(=O)[C@H](C)NC(=O)[C@H](CCC(N)=O)NC(=O)CNC(=O)[C@H](CCC(=O)O)NC(=O)[C@H](CC(C)C)NC(=O)[C@](C)(Cc1ccccc1)NC(=O)[C@H](CO)NC(=O)[C@H](CO)NC(=O)[C@@H](NC(=O)[C@H](CC(=O)O)NC(=O)[C@H](CO)NC(=O)[C@@H](NC(=O)[C@H](Cc1ccccc1)NC(=O)[C@H](CO)NC(=O)CNC(=O)[C@H](CCC(=O)O)NC(=O)C(C)(C)NC(=O)[C@@H](N)Cc1c[nH]cn1)[C@@H](C)O)C(C)C)C(=O)N[C@@H](C)C(=O)N[C@@](C)(Cc1ccccc1)C(=O)N[C@@H](CC(C)C)C(=O)N[C@H](C(=O)N[C@@H](CCCCN)C(=O)NCC(=O)N[C@@H](CCCNC(=N)N)C(N)=O)C(C)C` [SEQ ID NO: 37, H-(Aib)^2-EG-(S)^5-FTSDV^10 SS-(α-MeF)^13-LE^15 GQAAK^20 E-(α-MeF)^22-IA-(α-MeF)^25 LVKGR^30] (H-H[Aib]EGSFTSDVSS[αMeF]LEGQAAKE[αMeF]IA[αMeF]LVKGR-NH2): 0.191 nM and 102 nM.
With `CC[C@H](C)[C@H](NC(=O)[C@H](Cc1ccccc1)NC(=O)[C@H](CCC(=O)O)NC(=O)[C@H](CCCCN)NC(=O)[C@H](C)NC(=O)[C@H](C)NC(=O)[C@H](CCC(N)=O)NC(=O)CNC(=O)[C@H](CCC(=O)O)NC(=O)[C@H](CC(C)C)NC(=O)[C@H](Cc1ccc(O)cc1)NC(=O)[C@H](CO)NC(=O)[C@H](CO)NC(=O)[C@@H](NC(=O)[C@H](CC(=O)O)NC(=O)[C@H](CO)NC(=O)[C@@H](NC(=O)[C@H](Cc1ccccc1)NC(=O)[C@H](CO)NC(=O)CNC(=O)[C@H](CCC(=O)O)NC(=O)C(C)(C)NC(=O)[C@@H](N)Cc1c[nH]cn1)[C@@H](C)O)C(C)C)C(=O)N[C@@H](C)C(=O)N[C@@H](Cc1c[nH]c2ccccc12)C(=O)N[C@@H](CC(C)C)C(=O)N[C@H](C(=O)N[C@@H](CCCCN)C(=O)NCC(=O)N[C@@H](CCCNC(=N)N)C(N)=O)C(C)C` [SEQ ID NO: 28, H-(Aib)^2-EG-(S)^5-FTSDV^10 SSYLE^15 GQAAK^20 EFIAW^25 LVKGR^30], the EC50 in test [2] was 0.00951 nM; in test [3], 102 nM.
